Assay results from PubChem BioAssay AID256 (DTP/NCI, 2004).
“And” between values parts separate entries of the source, which are not always exact repeats. Equal values may be shown once. Toxic doses and inconclusive results are not listed.

Test system: CD2F1 mice, L1210 leukemia ip, survival T/C
Test: NCI In Vivo Anticancer Drug Screen. Data for tumor model L1210 Leukemia (intraperitoneal) in CD2F1 (CDF1) mice
Settings: endpoint: mean survival time, higher = longer survival
Summary of the method: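 Activity against a transplanted murine tumor was judged by comparing the compound group with a vehicle group. The outcome in the treated animals was divided by that in the controls.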

[1] = dose: 100.0 mg/kg/injection, schedule: Q04DX002 (ip), vehicle: saline with Tween-80
[2] = dose: 100.0 mg/kg/injection, schedule: Q04DX003 (ip), vehicle: saline
[3] = dose: 200.0 mg/kg/injection, schedule: Q04DX003 (ip), vehicle: saline
[4] = dose: 100.0 mg/kg/injection, schedule: Q04DX003 (ip), vehicle: saline with Tween-80
[5] = dose: 200.0 mg/kg/injection, schedule: Q04DX003 (ip), vehicle: saline with Tween-80
[6] = dose: 400.0 mg/kg/injection, schedule: Q04DX003 (ip), vehicle: saline with Tween-80
[7] = dose: 100.0 mg/kg/injection, schedule: Q01DX009 (ip), vehicle: saline with Tween-80
[8] = dose: 200.0 mg/kg/injection, schedule: Q01DX009 (ip), vehicle: saline with Tween-80
[9] = dose: 400.0 mg/kg/injection, schedule: Q01DX009 (ip), vehicle: saline with Tween-80

Structure (SMILES): CCCCCCCCCCCCCCCC(=O)N(CCCN)C(C)(C)CCC(C)(C)N(CCCN)C(=O)CCCCCCCCCCCCCCC
- T/C (dose: 1.56 mg/kg/injection, schedule: Q01DX009 (ip), vehicle: water): 106 % of control
- T/C (dose: 3.13 mg/kg/injection, schedule: Q01DX009 (ip), vehicle: water): 98 % of control
- T/C (dose: 6.25 mg/kg/injection, schedule: Q01DX009 (ip), vehicle: water): 104 % of control
- T/C (dose: 12.5 mg/kg/injection, schedule: Q01DX009 (ip), vehicle: water): 102 % of control
- T/C (dose: 25.0 mg/kg/injection, schedule: Q01DX009 (ip), vehicle: water): 89 % of control and 95 % of control

Structure (SMILES): COc1cc([C@@H]2c3cc4c(cc3[C@@H](OC3OC5CO[C@@H](c6cccs6)OC5C(O)C3O)[C@H]3COC(=O)[C@H]23)OCO4)cc(OC)c1O (stereo not given in full)
- T/C (dose: 0.25 mg/kg/injection, schedule: Q01DX009 (ip), vehicle: saline): 115 % of control
- T/C (dose: 0.25 mg/kg/injection, schedule: Q03HX016 (ip), vehicle: saline): 152 % of control
- T/C (dose: 0.25 mg/kg/injection, schedule: Q03HX024 (ip), vehicle: saline): 169 % of control and 173 % of control
- T/C (dose: 0.5 mg/kg/injection, schedule: Q01DX009 (sc), vehicle: saline): 110 % of control
- T/C (dose: 0.5 mg/kg/injection, schedule: Q03HX008 (ip), vehicle: saline): 164 % of control
- T/C (dose: 0.5 mg/kg/injection, schedule: Q03HX016 (ip), vehicle: saline): 246 % of control
- T/C (dose: 0.5 mg/kg/injection, schedule: Q03HX024 (ip), vehicle: saline): 256 % of control and 323 % of control
- T/C (dose: 1.0 mg/kg/injection, schedule: Q01DX005 (ip), vehicle: saline): 153 % of control
- T/C (dose: 1.0 mg/kg/injection, schedule: Q01DX009 (ip), vehicle: saline): 123 % of control and 231 % of control and 106 % of control
- T/C (dose: 1.0 mg/kg/injection, schedule: Q03HX008 (ip), vehicle: saline): 192 % of control
- T/C (dose: 1.0 mg/kg/injection, schedule: Q03HX016 (ip), vehicle: saline): 544 % of control
- T/C (dose: 1.0 mg/kg/injection, schedule: Q03HX024 (ip), vehicle: saline): 441 % of control and 514 % of control
- T/C (dose: 2.0 mg/kg/injection, schedule: Q01DX001 (sc), vehicle: saline): 113 % of control
- T/C (dose: 2.0 mg/kg/injection, schedule: Q01DX005 (ip), vehicle: saline): 204 % of control
- T/C (dose: 2.0 mg/kg/injection, schedule: Q01DX009 (ip), vehicle: saline): 202 % of control and 109 % of control
- T/C (dose: 2.0 mg/kg/injection, schedule: Q01DX009 (oral), vehicle: saline): 114 % of control
- T/C (dose: 2.0 mg/kg/injection, schedule: Q01DX009 (sc), vehicle: saline): 166 % of control
- T/C (dose: 2.0 mg/kg/injection, schedule: Q03HX008 (ip), vehicle: saline): 173 % of control
- T/C (dose: 2.0 mg/kg/injection, schedule: Q03HX016 (ip), vehicle: saline): 313 % of control
- T/C (dose: 2.0 mg/kg/injection, schedule: Q03HX024 (ip), vehicle: saline): 89 % of control
- T/C (dose: 4.0 mg/kg/injection, schedule: Q01DX001 (ip), vehicle: saline): 158 % of control
- T/C (dose: 4.0 mg/kg/injection, schedule: Q01DX001 (sc), vehicle: saline): 123 % of control
- T/C (dose: 4.0 mg/kg/injection, schedule: Q01DX005 (ip), vehicle: saline): 87 % of control
- T/C (dose: 4.0 mg/kg/injection, schedule: Q01DX009 (ip), vehicle: saline): 210 % of control and 112 % of control
- T/C (dose: 4.0 mg/kg/injection, schedule: Q01DX009 (sc), vehicle: saline): 102 % of control
- T/C (dose: 4.0 mg/kg/injection, schedule: Q04DX003 (ip), vehicle: saline): 209 % of control
- T/C (dose: 4.0 mg/kg/injection, schedule: Q08DX002 (ip), vehicle: saline): 164 % of control
- T/C (dose: 8.0 mg/kg/injection, schedule: Q01DX001 (ip), vehicle: saline): 239 % of control
- T/C (dose: 8.0 mg/kg/injection, schedule: Q01DX001 (oral), vehicle: saline): 122 % of control
- T/C (dose: 8.0 mg/kg/injection, schedule: Q01DX009 (oral), vehicle: saline): 102 % of control
- T/C (dose: 8.0 mg/kg/injection, schedule: Q04DX003 (ip), vehicle: saline): 169 % of control and 251 % of control
- T/C (dose: 8.0 mg/kg/injection, schedule: Q08DX002 (ip), vehicle: saline): 346 % of control
- T/C (dose: 16.0 mg/kg/injection, schedule: Q01DX001 (ip), vehicle: saline): 254 % of control
- T/C (dose: 16.0 mg/kg/injection, schedule: Q01DX001 (sc), vehicle: saline): 153 % of control
- T/C (dose: 32.0 mg/kg/injection, schedule: Q01DX001 (ip), vehicle: saline): 87 % of control
- T/C (dose: 32.0 mg/kg/injection, schedule: Q01DX001 (sc), vehicle: saline): 156 % of control
- T/C (dose: 32.0 mg/kg/injection, schedule: Q04DX003 (ip), vehicle: saline): 454 % of control
- T/C (dose: 32.0 mg/kg/injection, schedule: Q08DX002 (ip), vehicle: saline): 114 % of control

Structure (SMILES): Cc1ccc(S(=O)(=O)OCC2OCOC(COS(=O)(=O)c3ccc(C)cc3)C(OS(=O)(=O)c3ccc(C)cc3)C2OS(=O)(=O)c2ccc(C)cc2)cc1 (stereo not given)
- T/C [1]: 88 % of control
- T/C (dose: 200.0 mg/kg/injection, schedule: Q04DX002 (ip), vehicle: saline with Tween-80): 100 % of control
- T/C (dose: 400.0 mg/kg/injection, schedule: Q04DX002 (ip), vehicle: saline with Tween-80): 107 % of control

Structure (SMILES): CC(C)C(=O)OCC(C)(C)COC(=O)C(C)C
- T/C [2]: 87 % of control
- T/C [3]: 87 % of control
- T/C (dose: 400.0 mg/kg/injection, schedule: Q04DX003 (ip), vehicle: saline): 94 % of control

Structure (SMILES): Cc1ccccc1C(C)NC1=NCCO1 (stereo not given)
- T/C (dose: 6.25 mg/kg/injection, schedule: Q01DX009 (ip), vehicle: saline with Tween-80): 90 % of control
- T/C (dose: 6.25 mg/kg/injection, schedule: Q04DX003 (ip), vehicle: saline with Tween-80): 96 % of control
- T/C (dose: 12.5 mg/kg/injection, schedule: Q01DX009 (ip), vehicle: saline with Tween-80): 96 % of control
- T/C (dose: 12.5 mg/kg/injection, schedule: Q04DX003 (ip), vehicle: saline with Tween-80): 95 % of control
- T/C (dose: 25.0 mg/kg/injection, schedule: Q01DX009 (ip), vehicle: saline with Tween-80): 97 % of control
- T/C (dose: 25.0 mg/kg/injection, schedule: Q04DX003 (ip), vehicle: saline with Tween-80): 93 % of control

Structure (SMILES): C1=CC2CCC[N-]C2N1.C1=CC2CCC[N-]C2N1.[I][Pt+2][I] (stereo not given)
- T/C (dose: 25.0 mg/kg/injection, schedule: Q04DX003 (ip), vehicle: saline): 98 % of control
- T/C (dose: 50.0 mg/kg/injection, schedule: Q04DX003 (ip), vehicle: saline): 101 % of control
- T/C [2]: 102 % of control
- T/C [3]: 107 % of control

Structure (SMILES): Cc1cc(C)c(/C(O)=C/C(=S)N2CCOCC2)c(C)c1
- T/C [4]: 98 % of control
- T/C [5]: 98 % of control
- T/C [6]: 98 % of control

Structure (SMILES): CCCCCCCCCCCC#N
- T/C (dose: 100.0 mg/kg/injection, schedule: Q04DX003 (ip), vehicle: Klucel (hydroxypropylcellulose) (HPC)): 102 % of control
- T/C (dose: 200.0 mg/kg/injection, schedule: Q04DX003 (ip), vehicle: Klucel (hydroxypropylcellulose) (HPC)): 97 % of control
- T/C (dose: 400.0 mg/kg/injection, schedule: Q04DX003 (ip), vehicle: Klucel (hydroxypropylcellulose) (HPC)): 104 % of control

Structure (SMILES): O=C(CCl)Nc1ccccn1
- T/C (dose: 100.0 mg/kg/injection, schedule: Q01DX009 (ip), vehicle: saline): 96 % of control
- T/C (dose: 200.0 mg/kg/injection, schedule: Q01DX009 (ip), vehicle: saline): 102 % of control
- T/C (dose: 400.0 mg/kg/injection, schedule: Q01DX009 (ip), vehicle: saline): 97 % of control

Structure (SMILES): Nc1ccc(-n2nc3ccc4ccccc4c3n2)cc1
- T/C (dose: 25.0 mg/kg/injection, schedule: Q04DX002 (ip), vehicle: saline with Tween-80): 98 % of control
- T/C (dose: 50.0 mg/kg/injection, schedule: Q04DX002 (ip), vehicle: saline with Tween-80): 98 % of control
- T/C [1]: 103 % of control

Structure (SMILES): NN1C(=O)c2c(Cl)c(Cl)c(Cl)c(Cl)c2C1=O
- T/C [7]: 97 % of control
- T/C [4]: 95 % of control
- T/C [8]: 98 % of control
- T/C [5]: 97 % of control
- T/C [9]: 93 % of control
- T/C [6]: 92 % of control

Structure (SMILES): OCCNCCO
- T/C [7]: 93 % of control
- T/C [4]: 97 % of control
- T/C [8]: 93 % of control
- T/C [5]: 103 % of control
- T/C [9]: 96 % of control
- T/C [6]: 107 % of control

Structure (SMILES): COc1ccc(COc2ccc([N+](=O)[O-])cc2)cc1OC
- T/C (dose: 75.0 mg/kg/injection, schedule: Q04DX002 (ip), vehicle: saline with Tween-80): 87 % of control
- T/C (dose: 150.0 mg/kg/injection, schedule: Q04DX002 (ip), vehicle: saline with Tween-80): 102 % of control
